Assay results taken from US11903931B2, “Salts of selective estrogen receptor degraders” (InventisBio Co., Ltd., priority 2018, dated 2024).
Counter-ions that a name gives are not always drawn.

What was measured:
[1] = Solubility test in pH 1.2 or pH 6.8 buffer (saturated solutions, HPLC; remaining solids by XRPD); assay type: physicochemical; conditions: for XRPD analysis of remaining solids after solubility test: 24 hours, medium not stated; for XRPD patterns at 24 h: remaining solid
Experimental: For solubility test: About 20 mg of Compound FA, L-lysine salt and meglumine salt (Form I) were weighed into vials, added 3 mL of pH1.2 or pH 6.8 buffer to make saturated solutions. All suspensions were kept shaking with 200 rpm at room temperature for up to 24 hours. […] At 24 hours, remaining solids were collected and determined by XRPD.

[2] = Dynamic moisture sorption analysis (DVS); assay type: physicochemical
Experimental: Dynamic moisture sorption analysis (DVS): DVS was determined using IGAsorp (Hiden Isochema, UK). The sample was tested at a targeted RH (relative humidity) of 10 to 90% full cycle in step mode. The analysis was performed in 10% RH increments.

[3] = Solid stability test at 40° C./75% RH for 8 days (HPLC, XRPD); assay type: physicochemical; conditions: for Physical and chemical stability / XRPD patterns after storage: 40° C./75% RH for 8 days; for Purity at 8 days / Purity at 0 day: HPLC; for Purity at 8 days: after 40° C./75% RH for 8 days; for Purity at 0 day: start of stability test
Experimental: HPLC ANALYSIS: a representative HPLC method is shown below, which can be used, for example, to analyze the purity, solubility, and stability of the salts herein.
For stability test: About 20 mg of Compound FA, L-lysine salt and meglumine salt (Form I) were weighed into vials, and put at the condition of 40° C./75% RH for 8 days. At 0 and 8 days, the solid sample was dissolved using acetonitrile/water (1/1) to make a solution with the concentration of 0.2 mg/mL. Sample solutions were analyzed by HPLC and solid samples were examined by XRPD.

[4] = tested on: ER+ breast cancer cells; conditions: cited from earlier work
[5] = compared with fulvestrant, GDC-0810 and AZD9496; cited from earlier work
[6] = biological target: T1, ER (Homo sapiens, UniProt P03372); conditions: intramuscular injection monthly; cited from earlier work
T1 sequence (P03372 1-595): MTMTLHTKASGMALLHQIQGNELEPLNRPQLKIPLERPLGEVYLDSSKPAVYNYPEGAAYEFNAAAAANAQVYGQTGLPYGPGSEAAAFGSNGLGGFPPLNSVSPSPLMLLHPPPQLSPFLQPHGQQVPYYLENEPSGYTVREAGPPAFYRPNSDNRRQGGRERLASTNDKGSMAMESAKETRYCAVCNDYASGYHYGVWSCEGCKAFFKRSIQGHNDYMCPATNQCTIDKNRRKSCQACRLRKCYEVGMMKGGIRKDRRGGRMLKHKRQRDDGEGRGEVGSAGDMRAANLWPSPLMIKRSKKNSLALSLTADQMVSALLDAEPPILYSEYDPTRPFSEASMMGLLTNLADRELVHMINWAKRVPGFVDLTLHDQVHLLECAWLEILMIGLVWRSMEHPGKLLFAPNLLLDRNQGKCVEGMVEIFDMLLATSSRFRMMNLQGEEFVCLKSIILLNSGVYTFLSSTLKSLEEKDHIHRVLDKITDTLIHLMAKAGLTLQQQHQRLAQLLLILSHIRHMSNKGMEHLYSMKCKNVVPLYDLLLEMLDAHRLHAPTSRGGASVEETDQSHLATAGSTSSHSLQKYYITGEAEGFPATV

[7] = Meglumine salt form interconversion study (slurry in IPA or water, XRPD); assay type: physicochemical; conditions: for Final crystal form: Water
Experimental: Interconversion study: Interconversion studies were carried out by mixing the same amount of different form solids in IPA or water, respectively. Suspensions were kept stirring at room temperature and 60° C. for several days, during which suspensions were filtrated and analyzed by XRPD.

[8] = Physical treatment (grinding) of Form I; assay type: physicochemical; conditions: grinded for 2 min and 5 min
Experimental: Physical treatment of Form I: Form I of meglumine salt was grinded for 2 min and 5 min. After grinding, the crystallinity declined, but the crystal form was still Form I.

[9] = Solid stability test of Form I at 25° C./92.5% RH for 10 days (XRPD); assay type: physicochemical
Experimental: Solid stability test of Form I at 92.5% RH for 10 days: About 20 mg of meglumine salt Form I was put into the condition of 25° C./92.5% RH for 10 days. At 10 days, the sample was analyzed by XRPD.

Compound	XRPD analysis of remaining solids after solubility test [1]	Stability in pH 1.2 buffer solution (HPLC) ([1]; pH 1.2 buffer)	XRPD patterns at 24 h ([1]; pH 1.2 buffer)	XRPD patterns at 24 h ([1]; pH 6.8 buffer)	XRPD pattern after DVS test [2]	Moisture adsorbed (DVS) ([2]; at 80% RH)	Physical and chemical stability [3]	XRPD patterns after storage [3]	Purity at 8 days [3] [Area %]	Purity at 0 day [3] [Area %]	Growth of ER+ breast cancer cells [4]	Human hepatocyte clearance [5]	ER degradation in clinical samples [6] [%]	Final crystal form ([7]; 25° C.)	Final crystal form ([7]; 60° C.)	Relative stability of crystal forms ([7]; in water at 60° C. and IPA)	Crystal form after grinding [8]	Crystallinity after grinding [8]	Crystal form after storage (XRPD) [9]
C[C@@H]1Cc2c([nH]c3ccccc23)[C@@H](c2c(Cl)cc(/C=C/C(=O)O)cc2Cl)N1CC(C)(C)F [Compound FA, (E)-3-(3,5-dichloro-4-((1R,3R)-2-(2-fluoro-2-methylpropyl)-3-methyl-2,3,4,9-tetrahydro-1H-pyrido[3,4-b]indol-1-yl)phenyl)acrylic acid]	became lower	unstable	Low crystallinity	Low crystallinity	didn't change	about 1.7%	physically and chemically stable	not changed	96.31	98.02	inhibited the growth	better human hepatocyte clearance							
C[C@]12CC[C@@H]3c4ccc(O)cc4C[C@@H](CCCCCCCCC[S+]([O-])CCCC(F)(F)C(F)(F)F)[C@H]3[C@@H]1CC[C@@H]2O (stereo partly drawn) [fulvestrant]													~50						
C[C@@H]1Cc2c([nH]c3ccccc23)[C@@H](c2c(Cl)cc(/C=C/C(=O)O)cc2Cl)N1CC(C)(C)F [Meglumine salt, Meglumine (E)-3-(3,5-dichloro-4-((1R,3R)-2-(2-fluoro-2-methylpropyl)-3-methyl-2,3,4,9-tetrahydro-1H-pyrido[3,4-b]indol-1-yl)phenyl)acrylate]	became lower	unstable	No change	Low crystallinity			physically and chemically stable	not changed	99.66	99.68				Dihydrate	Form I	most stable crystal form	still Form I	declined	remained unchanged
